The record followed here is US10034477B2, “Pyrido-1,3-oxazine-2,4-dione compounds with fungicidal activity” (Dow AgroSciences LLC, priority 2016, dated 2018).

What all share (type): in vivo
Assay [1] concerns Zymoseptoria tritici. Description: Fungicidal activity: leaf blotch of wheat (SEPTTR), disease control on wheat seedlings. As to conditions: LV activity at 121.5 g/H, wheat (variety Yuma). The protocol: (§1) Technical grades of materials were dissolved in acetone, which were then mixed with nine volumes of water (H2O) containing 110 ppm Triton X-100. The fungicide solutions were applied onto wheat seedlings using an automated booth sprayer to run-off. All sprayed plants were allowed to air dry prior to further handling. All fungicides were evaluated using the aforementioned method for their activity vs. all target diseases, unless stated otherwise. Wheat leaf blotch and brown rust activity were also evaluated using track spray applications, in which case the fungicides were formulated as EC formulations, containing 0.1% Trycol 5941 in the spray solutions. Wheat plants (variety Yuma) were grown from seed in a greenhouse in 50% mineral soil/50% soil-less Metro mix until the first leaf was fully emerged, with 7-10 seedlings per pot. These plants were inoculated with an aqueous spore suspension of Zymoseptoria tritici either prior to or after fungicide treatments. After inoculation the plants were kept in 100% relative humidity (one day in a dark dew chamber followed by two to three days in a lighted dew chamber at 20° C.) to permit spores to germinate and infect the leaf. The plants were then transferred to a greenhouse set at 20° C. for disease to develop. When disease symptoms were fully expressed on the 1st leaves of untreated plants, infection levels were assessed on a scale of 0 to 100 percent disease severity. Percent disease control was calculated using the ratio of disease severity on treated plants relative to untreated plants.

Assay [2] relates to Phakopsora pachyrhizi. Description: Fungicidal activity: Asian soybean rust (PHAKPA), disease control on soybean seedlings. Conditions: soybean (variety Williams 82). How it is done:
Technical grades of materials were dissolved in acetone, which were then mixed with nine volumes of H2O containing 0.011% Tween 20. The fungicide solutions were applied onto soybean seedlings using an automated booth sprayer to run-off. All sprayed plants were allowed to air dry prior to further handling. Soybean plants (variety Williams 82) were grown in soil-less Metro mix, with one plant per pot. Two week old seedlings were used for testing. Plants were inoculated either 3 days prior to or 1 day after fungicide treatments. Plants were incubated for 24 h in a dark dew room at 22° C. and 100% relative humidity then transferred to a growth room at 23° C. for disease to develop. Disease severity was assessed on the sprayed leaves.

For assay [3], the system named is Puccinia triticina. Description: Fungicidal activity: wheat brown rust (PUCCRT), disease control on wheat seedlings. Conditions: LV activity at 121.5 g/H, wheat (variety Yuma). How it is done:
as §1, with “plants. Wheat plants (variety Yuma) were grown from seed in a greenhouse in 50% mineral soil/50% soil-less Metro mix until the first leaf was fully emerged, with 7-10 seedlings per pot. These plants were inoculated with an aqueous spore suspension of Puccinia triticina either prior to or after fungicide treatments. After inoculation the plants were kept in a dark dew room at 22° C. with 100% relative humidity overnight to permit spores to germinate and infect the leaf. The plants were then transferred to a greenhouse set at 24° C. for disease to develop. Fungicide formulation, application and disease assessment followed the procedures as described in the Example A. Results of the evaluations are shown below in Table 4.” for “plants.”

[4] abbreviates: 72 h, 3 Day Curative, read-out: SEPTTR 3DC disease control rating.
Setting [5] is: 72 h, 3 Day Curative, read-out: PHAKPA 3DC disease control rating.
Setting [6] is: 24 h, 1 Day Protectant, read-out: PUCCRT 1DP disease control rating.
Setting [7] is: 72 h, 3 Day Curative, read-out: PUCCRT 3DC disease control rating.
Where [8] appears, read: 24 h, 1 Day Protectant, read-out: SEPTTR 1DP disease control rating.
Where [9] appears, read: 24 h, 1 Day Protectant, read-out: PHAKPA 1DP disease control rating.

Molecules are shown by their SMILES. Where two headings read alike, the source gives them in different places. Where only a bound is given, the exact number is not on record here.

For the compound `COc1ccnc2c(=O)n([C@@H](C)C(=O)O[C@H](C)C(c3ccc(F)cc3)c3ccc(F)cc3)c(=O)oc12` [Compound 29], the pest or weed control at 121.5 g/ha in assay [1] (setting [4]) was at most 80%. The pest or weed control at 25 ppm in assay [2] (setting [5]) was at most 80%.
Consider `CCC(CC)[C@@H](Oc1ccc(Cl)cc1)[C@H](C)OC(=O)[C@H](C)n1c(=O)oc2c(OC)ccnc2c1=O` [Compound 5], for which the pest or weed control at 121.5 g/ha in assay [3] (setting [6]) was over 80%; in assay [3] (setting [7]), at most 80%; in assay [1] (setting [8]) it was over 80%; in assay [1] (setting [4]) it was at most 80%.
With `COc1cc(F)ccc1[C@@H](c1ccc(F)cc1)[C@H](C)OC(=O)[C@H](C)n1c(=O)oc2c(OC)ccnc2c1=O` [Compound 20], the pest or weed control at 121.5 g/ha in assay [3] (setting [6]) was over 80%; in assay [3] (setting [7]), at most 80%; in assay [1] (setting [8]), over 80%; in assay [1] (setting [4]), over 80%.
Consider `CCCCC[C@H](OC(=O)[C@H](C)n1c(=O)oc2c(OC)ccnc2c1=O)[C@@H](C)Oc1ccccc1` [Compound 13], for which the pest or weed control at 121.5 g/ha in assay [1] (setting [8]) and in assay [1] (setting [4]) was at most 80% in each case. In addition, in assay [2] (setting [5]), the pest or weed control at 25 ppm is at most 80%.
Consider `COc1cc(F)ccc1[C@@H](c1ccc(F)c(C)c1)[C@H](C)OC(=O)[C@H](C)n1c(=O)oc2c(OC)ccnc2c1=O` [Compound 7], for which the pest or weed control at 121.5 g/ha in assay [3] (setting [6]), in assay [1] (setting [8]) and in assay [1] (setting [4]) was over 80% throughout.
`COc1ccnc2c(=O)n([C@@H](C)C(=O)O[C@@H](C)C(c3ccc(F)cc3F)c3ccc(F)cc3F)c(=O)oc12` [Compound 2]: the pest or weed control at 121.5 g/ha was over 80% in assay [3] (setting [6]), at most 80% in assay [3] (setting [7]), over 80% in assay [1] (setting [8]) and over 80% in assay [1] (setting [4]).
As for `CCC(CC)[C@@H](Oc1cccc(Cl)c1)[C@H](C)OC(=O)[C@H](C)n1c(=O)oc2c(OC)ccnc2c1=O` [Compound 9], the pest or weed control at 121.5 g/ha in assay [3] (setting [6]) was over 80%; in assay [3] (setting [7]) it was at most 80%; in assay [1] (setting [8]), at most 80%; in assay [1] (setting [4]), at most 80%.
Take `COc1ccc(C(c2ccc(OC)cc2OC)[C@H](C)OC(=O)[C@H](C)n2c(=O)oc3c(OC)ccnc3c2=O)c(OC)c1` [Compound 8]: the pest or weed control at 121.5 g/ha in assay [3] (setting [6]) is at most 80%; in assay [3] (setting [7]), at most 80%; in assay [1] (setting [8]) it was over 80%; in assay [1] (setting [4]) it was over 80%.
In the case of `COc1ccnc2c(=O)n([C@@H](C)C(=O)O[C@@H](C)C(c3cccc(F)c3)c3cccc(F)c3)c(=O)oc12` [Compound 14], the pest or weed control at 121.5 g/ha in assay [3] (setting [6]) is at most 80%; in assay [3] (setting [7]) it was at most 80%; in assay [1] (setting [8]), over 80%; in assay [1] (setting [4]), over 80%.
On to `COc1ccnc2c(=O)n([C@@H](C)C(=O)O[C@@H](C)[C@H](c3ccccc3)c3ccc(C)cc3F)c(=O)oc12` [Compound 17], for which the pest or weed control at 121.5 g/ha in assay [3] (setting [6]), in assay [1] (setting [8]) and in assay [1] (setting [4]) was over 80% each time.
Consider `CCC[C@H](OC(=O)[C@H](C)n1c(=O)oc2c(OC)ccnc2c1=O)[C@@H](C)Oc1ccccc1` [Compound 35], for which the pest or weed control at 121.5 g/ha in assay [1] (setting [4]) was at most 80%. Moreover, the pest or weed control at 25 ppm in assay [2] (setting [5]) was at most 80%.
`COc1cc(Cl)ccc1C(c1ccc(Cl)cc1OC)[C@H](C)OC(=O)[C@H](C)n1c(=O)oc2c(OC)ccnc2c1=O` [Compound 26]: the pest or weed control at 121.5 g/ha in assay [3] (setting [6]), in assay [1] (setting [8]) and in assay [1] (setting [4]) was over 80% throughout. In addition, in assay [2] (setting [9]), the pest or weed control at 25 ppm is at most 80%.
Take `COc1ccnc2c(=O)n([C@@H](C)C(=O)O[C@@H](C)[C@H](c3ccc(C)cc3)c3ccc(C)cc3F)c(=O)oc12` [Compound 25]: the pest or weed control at 121.5 g/ha is over 80% in assay [3] (setting [6]), at most 80% in assay [3] (setting [7]), over 80% in assay [1] (setting [8]) and over 80% in assay [1] (setting [4]). Moreover, in assay [2] (setting [9]), the pest or weed control at 25 ppm is at most 80%.
Take `COc1ccnc2c(=O)n([C@@H](C)C(=O)O[C@@H](C)[C@@H](c3ccc(C)cc3)c3ccc(F)cc3C)c(=O)oc12` [Compound 33]: the pest or weed control at 121.5 g/ha in assay [3] (setting [6]) was over 80%; in assay [3] (setting [7]), at most 80%; in assay [1] (setting [8]), over 80%; in assay [1] (setting [4]), over 80%. Also, the pest or weed control at 25 ppm was over 80% in assay [2] (setting [9]) and at most 80% in assay [2] (setting [5]).
For the compound `COc1ccc(O[C@@H](C)[C@H](OC(=O)[C@H](C)n2c(=O)oc3c(OC)ccnc3c2=O)C(C)C)cc1` [Compound 23], the pest or weed control at 121.5 g/ha in assay [3] (setting [6]) was over 80%; in assay [3] (setting [7]) it was over 80%; in assay [1] (setting [8]) it was at most 80%; in assay [1] (setting [4]) it was over 80%. The pest or weed control at 25 ppm in assay [2] (setting [9]) was over 80%; in assay [2] (setting [5]), at most 80%.
For the compound `COc1ccnc2c(=O)n([C@H](C)C(=O)O[C@H](C)C(c3ccc(F)cc3)c3ccc(F)cc3)c(=O)oc12` [Compound 34], the pest or weed control at 25 ppm in assay [2] (setting [9]) and in assay [2] (setting [5]) was at most 80% in each case.
On to `CC[C@H](OC(=O)[C@H](C)n1c(=O)oc2c(OC)ccnc2c1=O)[C@@H](C)Oc1ccccc1` [Compound 6], for which the pest or weed control at 121.5 g/ha in assay [3] (setting [7]) and in assay [1] (setting [4]) was at most 80% in each case.
Regarding `COc1ccnc2c(=O)n([C@@H](C)C(=O)O[C@@H](C)[C@H](Oc3ccccc3)C(C)(C)C)c(=O)oc12` [Compound 4], the pest or weed control at 121.5 g/ha was over 80% in assay [3] (setting [6]), over 80% in assay [3] (setting [7]) and at most 80% in assay [1] (setting [4]).
As for `CCC(CC)[C@@H](Oc1ccccc1Cl)[C@H](C)OC(=O)[C@H](C)n1c(=O)oc2c(OC)ccnc2c1=O` [Compound 16], the pest or weed control at 121.5 g/ha in assay [3] (setting [6]) was over 80%; in assay [3] (setting [7]), at most 80%; in assay [1] (setting [8]) it was at most 80%; in assay [1] (setting [4]), over 80%.
With `CCC[C@@H](Oc1cccc(OC)c1)[C@H](C)OC(=O)[C@H](C)n1c(=O)oc2c(OC)ccnc2c1=O` [Compound 10], the pest or weed control at 121.5 g/ha in assay [3] (setting [6]), in assay [3] (setting [7]) and in assay [1] (setting [4]) was over 80% each time.
With `COc1ccnc2c(=O)n([C@@H](C)C(=O)O[C@@H](C)[C@H](c3ccc(F)cc3)c3ccc(F)cc3C)c(=O)oc12` [Compound 11], the pest or weed control at 121.5 g/ha in assay [3] (setting [6]) is at most 80%; in assay [1] (setting [8]), over 80%; in assay [1] (setting [4]), over 80%.
On to `COc1ccnc2c(=O)n([C@@H](C)C(=O)O[C@@H](C)[C@H](Oc3ccccc3)c3ccc(F)cc3Cl)c(=O)oc12` [Compound 15], for which the pest or weed control at 121.5 g/ha was over 80% in assay [3] (setting [6]), at most 80% in assay [3] (setting [7]), over 80% in assay [1] (setting [8]) and over 80% in assay [1] (setting [4]).
